From the NIST ThermoML archive (doi:10.1016/j.jct.2015.06.004)

Tests used:
[1] = 298.15 K; 101.33 kPa; Liquid; Vibrating tube method
[2] = excess molar enthalpy (molar enthalpy of mixing); xn = mol fraction of the nth substance listed; details: 298.15 K, 100 kPa, Liquid, Power-compensation calorimetry

CCCC[N+]1(C)CCCC1.N#C[B-](C#N)(C#N)C#N [1-butyl-1-methylpyrrolidinium tetracyanoborate]
Details | mass density [kg/m3]
[1] | 975.61

CCCC[N+]1(C)CCCC1.N#C[B-](C#N)(C#N)C#N [1-butyl-1-methylpyrrolidinium tetracyanoborate] + CCCCO
[2]
Details | excess molar enthalpy [kcal/mol]
x1 = 0.0149 | 0.0582
x1 = 0.03 | 0.111
x1 = 0.0449 | 0.159
x1 = 0.0599 | 0.202
x1 = 0.0749 | 0.242
x1 = 0.0899 | 0.279
x1 = 0.1049 | 0.313
x1 = 0.1199 | 0.344
x1 = 0.1349 | 0.373
x1 = 0.1499 | 0.4
x1 = 0.1649 | 0.425
x1 = 0.1799 | 0.448
x1 = 0.1949 | 0.469
x1 = 0.2099 | 0.489
x1 = 0.2248 | 0.507
x1 = 0.2399 | 0.524
x1 = 0.2549 | 0.539
x1 = 0.2698 | 0.553
x1 = 0.2849 | 0.565
x1 = 0.2999 | 0.576
x1 = 0.4828 | 0.591
x1 = 0.5199 | 0.579
x1 = 0.557 | 0.561
x1 = 0.5941 | 0.537
x1 = 0.631 | 0.508
x1 = 0.6681 | 0.474
x1 = 0.7049 | 0.435
x1 = 0.7419 | 0.392
x1 = 0.7789 | 0.346
x1 = 0.8157 | 0.295
x1 = 0.8525 | 0.242
x1 = 0.8892 | 0.186
x1 = 0.9262 | 0.126
x1 = 0.9632 | 0.0638

CCCC[N+]1(C)CCCC1.N#C[B-](C#N)(C#N)C#N [1-butyl-1-methylpyrrolidinium tetracyanoborate] + CCCO
[2]
Details | excess molar enthalpy [kcal/mol]
x1 = 0.014 | 0.0518
x1 = 0.028 | 0.0994
x1 = 0.042 | 0.143
x1 = 0.056 | 0.183
x1 = 0.07 | 0.22
x1 = 0.084 | 0.255
x1 = 0.098 | 0.287
x1 = 0.112 | 0.317
x1 = 0.126 | 0.345
x1 = 0.1399 | 0.37
x1 = 0.1539 | 0.394
x1 = 0.168 | 0.417
x1 = 0.1819 | 0.437
x1 = 0.1959 | 0.456
x1 = 0.21 | 0.474
x1 = 0.224 | 0.49
x1 = 0.2257 | 0.484
x1 = 0.238 | 0.504
x1 = 0.252 | 0.518
x1 = 0.2592 | 0.522
x1 = 0.264 | 0.528
x1 = 0.2983 | 0.553
x1 = 0.3374 | 0.573
x1 = 0.3765 | 0.584
x1 = 0.4156 | 0.588
x1 = 0.4547 | 0.584
x1 = 0.4938 | 0.573
x1 = 0.5329 | 0.556
x1 = 0.572 | 0.533
x1 = 0.611 | 0.505
x1 = 0.65 | 0.471
x1 = 0.6891 | 0.433
x1 = 0.7282 | 0.39
x1 = 0.7672 | 0.343
x1 = 0.8062 | 0.292
x1 = 0.8451 | 0.238
x1 = 0.8839 | 0.18
x1 = 0.9228 | 0.119
x1 = 0.9615 | 0.0556

CCCC[N+]1(C)CCCC1.N#C[B-](C#N)(C#N)C#N [1-butyl-1-methylpyrrolidinium tetracyanoborate] + CCO
[2]
Details | excess molar enthalpy [kcal/mol]
x1 = 0.0134 | 0.0375
x1 = 0.0268 | 0.0729
x1 = 0.0402 | 0.107
x1 = 0.0537 | 0.14
x1 = 0.0672 | 0.171
x1 = 0.0808 | 0.201
x1 = 0.0948 | 0.23
x1 = 0.1088 | 0.257
x1 = 0.1228 | 0.283
x1 = 0.1368 | 0.307
x1 = 0.1509 | 0.329
x1 = 0.1511 | 0.334
x1 = 0.165 | 0.35
x1 = 0.1652 | 0.355
x1 = 0.1792 | 0.369
x1 = 0.1902 | 0.389
x1 = 0.1933 | 0.387
x1 = 0.2067 | 0.403
x1 = 0.2202 | 0.424
x1 = 0.2403 | 0.444
x1 = 0.2803 | 0.477
x1 = 0.3203 | 0.501
x1 = 0.3604 | 0.517
x1 = 0.4005 | 0.525
x1 = 0.4406 | 0.527
x1 = 0.4806 | 0.521
x1 = 0.5206 | 0.51
x1 = 0.5607 | 0.492
x1 = 0.6007 | 0.47
x1 = 0.6408 | 0.441
x1 = 0.6807 | 0.408
x1 = 0.7203 | 0.371
x1 = 0.7604 | 0.328
x1 = 0.8002 | 0.282
x1 = 0.8402 | 0.232
x1 = 0.8802 | 0.178
x1 = 0.9201 | 0.121
x1 = 0.96 | 0.0612

CCCC[N+]1(C)CCCC1.N#C[B-](C#N)(C#N)C#N [1-butyl-1-methylpyrrolidinium tetracyanoborate] + CO
[2]
Details | excess molar enthalpy [kcal/mol]
x1 = 0.013 | 0.0258
x1 = 0.026 | 0.0519
x1 = 0.039 | 0.0782
x1 = 0.052 | 0.104
x1 = 0.065 | 0.129
x1 = 0.078 | 0.153
x1 = 0.091 | 0.176
x1 = 0.104 | 0.197
x1 = 0.117 | 0.218
x1 = 0.13 | 0.237
x1 = 0.1362 | 0.255
x1 = 0.143 | 0.254
x1 = 0.156 | 0.271
x1 = 0.1602 | 0.288
x1 = 0.169 | 0.287
x1 = 0.1775 | 0.297
x1 = 0.2003 | 0.334
x1 = 0.2404 | 0.37
x1 = 0.2805 | 0.399
x1 = 0.3207 | 0.419
x1 = 0.3608 | 0.432
x1 = 0.4009 | 0.439
x1 = 0.441 | 0.439
x1 = 0.4812 | 0.434
x1 = 0.5213 | 0.423
x1 = 0.5615 | 0.407
x1 = 0.6016 | 0.386
x1 = 0.6416 | 0.361
x1 = 0.6816 | 0.331
x1 = 0.7217 | 0.298
x1 = 0.7616 | 0.261
x1 = 0.8015 | 0.221
x1 = 0.8414 | 0.177
x1 = 0.8814 | 0.13
x1 = 0.9213 | 0.0811
x1 = 0.9606 | 0.0317

CCCC[N+]1(C)CCCC1.N#C[B-](C#N)(C#N)C#N [1-butyl-1-methylpyrrolidinium tetracyanoborate] + Cc1ccccc1
[2]
Details | excess molar enthalpy [kcal/mol]
x1 = 0.0179 | -0.0242
x1 = 0.0359 | -0.0474
x1 = 0.0539 | -0.0702
x1 = 0.0719 | -0.093
x1 = 0.0898 | -0.116
x1 = 0.1079 | -0.138
x1 = 0.1259 | -0.161
x1 = 0.1439 | -0.184
x1 = 0.1619 | -0.206
x1 = 0.1799 | -0.228
x1 = 0.1979 | -0.249
x1 = 0.2159 | -0.271
x1 = 0.2339 | -0.291
x1 = 0.2519 | -0.304
x1 = 0.2698 | -0.313
x1 = 0.2878 | -0.319
x1 = 0.2933 | -0.315
x1 = 0.3059 | -0.322
x1 = 0.3203 | -0.319
x1 = 0.3239 | -0.323
x1 = 0.3369 | -0.321
x1 = 0.3603 | -0.312
x1 = 0.4004 | -0.301
x1 = 0.4405 | -0.285
x1 = 0.4805 | -0.267
x1 = 0.5206 | -0.247
x1 = 0.5606 | -0.226
x1 = 0.6006 | -0.206
x1 = 0.6407 | -0.184
x1 = 0.6807 | -0.163
x1 = 0.7207 | -0.141
x1 = 0.7606 | -0.12
x1 = 0.8006 | -0.0991
x1 = 0.8405 | -0.0784
x1 = 0.8803 | -0.058
x1 = 0.9202 | -0.0379
x1 = 0.9601 | -0.0183

CCCC[N+]1(C)CCCC1.N#C[B-](C#N)(C#N)C#N [1-butyl-1-methylpyrrolidinium tetracyanoborate] + c1ccccc1
[2]
Details | excess molar enthalpy [kcal/mol]
x1 = 0.0138 | -0.0203
x1 = 0.0277 | -0.0402
x1 = 0.0415 | -0.06
x1 = 0.0555 | -0.0799
x1 = 0.0694 | -0.0998
x1 = 0.0834 | -0.12
x1 = 0.0975 | -0.14
x1 = 0.1115 | -0.16
x1 = 0.1256 | -0.18
x1 = 0.1398 | -0.2
x1 = 0.1539 | -0.219
x1 = 0.1681 | -0.238
x1 = 0.1824 | -0.253
x1 = 0.1966 | -0.266
x1 = 0.2109 | -0.277
x1 = 0.2253 | -0.285
x1 = 0.2396 | -0.29
x1 = 0.2534 | -0.29
x1 = 0.254 | -0.294
x1 = 0.2685 | -0.296
x1 = 0.2767 | -0.296
x1 = 0.28 | -0.296
x1 = 0.3165 | -0.294
x1 = 0.3564 | -0.284
x1 = 0.3963 | -0.269
x1 = 0.4362 | -0.252
x1 = 0.4762 | -0.232
x1 = 0.5162 | -0.212
x1 = 0.5564 | -0.192
x1 = 0.5965 | -0.172
x1 = 0.6367 | -0.153
x1 = 0.6769 | -0.134
x1 = 0.7172 | -0.116
x1 = 0.7575 | -0.0981
x1 = 0.7979 | -0.0803
x1 = 0.8384 | -0.0632
x1 = 0.8788 | -0.0466
x1 = 0.9191 | -0.0305
x1 = 0.9596 | -0.0149

CCCC[N+]1(C)CCCC1.N#C[B-](C#N)(C#N)C#N [1-butyl-1-methylpyrrolidinium tetracyanoborate] + c1ccsc1
[2]
Details | excess molar enthalpy [kcal/mol]
x1 = 0.0147 | -0.0239
x1 = 0.0293 | -0.0467
x1 = 0.0439 | -0.0692
x1 = 0.0586 | -0.0916
x1 = 0.0732 | -0.114
x1 = 0.0879 | -0.136
x1 = 0.1026 | -0.158
x1 = 0.1173 | -0.18
x1 = 0.1321 | -0.202
x1 = 0.1468 | -0.224
x1 = 0.1616 | -0.245
x1 = 0.1763 | -0.263
x1 = 0.1911 | -0.279
x1 = 0.2059 | -0.292
x1 = 0.2207 | -0.302
x1 = 0.2316 | -0.303
x1 = 0.2355 | -0.31
x1 = 0.2503 | -0.316
x1 = 0.2515 | -0.311
x1 = 0.2642 | -0.319
x1 = 0.2763 | -0.315
x1 = 0.316 | -0.313
x1 = 0.3559 | -0.303
x1 = 0.3957 | -0.289
x1 = 0.4356 | -0.272
x1 = 0.4756 | -0.253
x1 = 0.5155 | -0.233
x1 = 0.5556 | -0.213
x1 = 0.5958 | -0.192
x1 = 0.636 | -0.172
x1 = 0.6763 | -0.151
x1 = 0.7165 | -0.131
x1 = 0.757 | -0.111
x1 = 0.7974 | -0.0918
x1 = 0.8378 | -0.0726
x1 = 0.8782 | -0.0537
x1 = 0.9188 | -0.0352
x1 = 0.9595 | -0.017

c1ccccc1 [benzene]
Details | mass density [kg/m3]
[1] | 873.57

CCCCO [butan-1-ol]
Details | mass density [kg/m3]
[1] | 805.79

CCO [ethanol]
Details | mass density [kg/m3]
[1] | 785.39

CO [methanol]
Details | mass density [kg/m3]
[1] | 786.6

CCCO [propan-1-ol]
Details | mass density [kg/m3]
[1] | 799.56

c1ccsc1 [thiophene]
Details | mass density [kg/m3]
[1] | 1058.46

Cc1ccccc1 [toluene]
Details | mass density [kg/m3]
[1] | 862.22
